PubChem BioAssay AID1963862 (Molecular Pharmacology Branch, DTP, NCI, 2024)

System: KRAS patient-derived spheroids with HUVEC/MSC, viability
Experiment: Anticancer human tumor 941728-121-R-J1-PDC patient-derived lung adenocarcinoma cell line growth inhibition [KRAS2]
Conditions: for IC50: curve of first compound; for viability, T/C: stronger effect = lower value
From the text: Multicellular complex tumor spheroid response to RAS pathway inhibitors in combination with a targeted agents in patient-derived cell lines with oncogenic KRAS variants from multiple cancer types
A high-throughput screen of multi-cell type tumor spheroids was designed to identify active combinations of targeted small molecules and KRAS pathway inhibitors. Complex spheroids include a stromal component modeled by human endothelial cells (HUVEC) and fibroblasts modeled by human mesenchymal stem cells (MSCs). The concentration ranges selected for each drug and investigational agent were based upon clinically achievable concentrations if the clinical Cmax of the agent was known.
Compounds. The drugs and investigational agents: BI-3406 (NSC825286), BAY-293 (NSC824723), batoprotafib (TNO155; NSC825523), sotorasib (AMG 510; NSC818433), MRTX1257 (NSC819558), elimusertib (BAY 1895344; NSC800525), molibresib (GSK525762; NSC774829), temuterkib (LY3214996; NSC803410), venetoclax (NSC766270), alisertib (NSC759677), olaparib (NSC753686), talazoparib (NSC767125), erdafitinib (NSC781556), ipatasertib (NSC767898), cabozantinib (NSC761068), nintedanib (NSC756659), abemaciclib (NSC768073), docetaxel (NSC628503), trametinib (NSC758246), and sapanisertib (NSC764658) were obtained from the National Cancer Institute (NCI) Developmental Therapeutics Program Chemical Repository. The FDA-approved anticancer drug set is available from the Developmental Therapeutics Program. […] The stock solutions were prepared in dimethyl sulfoxide (DMSO, Sigma-Aldrich, St. Louis, MO, cat. D2650) at 800-fold the tested concentration and stored at -70 degrees C prior to their use. All drugs and investigational agents were tested over a range starting from a high concentration at or near the clinical Cmax and decreasing in half-log increments. If the clinical Cmax for an agent had not been determined, the highest concentration tested was 10 microM.
Cell Culture. All cells were maintained in an incubator at 37 degrees C and 5% CO2 with 95% humidity. The PDC lines were cultured according to standard operating procedures established by the NCI PDMR (https://pdmr.cancer.gov/sops/default.htm). Briefly, all PDCs were thawed and cultured in Matrigel-coated flasks prepared with a working solution of 1X Ham's F-12 nutrient mix, without supplementation (Invitrogen, Waltham, MA, cat. 11765054), 100 U/mL penicillin-streptomycin (Invitrogen, cat. 15140122), and 2.5% Matrigel (Corning Inc., Corning, NY, cat. 354248) for the first three passages. All PDCs were cultured in complete DMEM/F-12 media containing advanced DMEM/F-12 (Invitrogen, cat. 12634028), 4.9% defined fetal bovine serum, heat inactivated (HyClone Laboratories Inc., Logan, UT, cat. SH30070.03HI), 389 ng/mL hydrocortisone (Sigma-Aldrich, cat. H4001), 9.7 ng/mL human EGF recombinant protein (Invitrogen, cat. PHG0313), 23.4 microg/mL adenine (Sigma-Aldrich, cat. A2786), 97.3 U/mL penicillin-streptomycin (Invitrogen, cat. 15140122), 1.9 mM L-glutamine (Invitrogen, cat. 25030081), and 9.7 microM Y-27632 dihydrochloride (Tocris Bioscience, Bristol, United Kingdom, cat. 1254). The PDCs were cultured in complete DMEM/F12 media without 9.7 microM Y-27632 dihydrochloride for at least two passages prior to the screen. The established cell line HOP-62 was cultured in RPMI 1640 medium, HEPES (Invitrogen, cat. 22400105) with 10% defined fetal bovine serum (HyClone Laboratories Inc., cat. SH30070.03) and 2 mM L-glutamine (Invitrogen, cat. 25030081). The pooled donor HUVEC were cultured in endothelial cell growth medium 2 (PromoCell, Heidelberg, Germany, cat. C-22011) and the hMSC were cultured in mesenchymal stem cell growth medium 2 (PromoCell, cat. C-28009). For all experiments, HUVEC and hMSC were used at passages </=5, while the malignant cell lines were used at passages </=15. […]

[1] = second compound 0.1 µM, first compound 0.01 µM
[2] = second compound 0.1 µM, first compound 0.0316 µM
[3] = second compound 0.1 µM, first compound 0.1 µM
[4] = second compound 0.1 µM, first compound 0.316 µM
[5] = second compound 0.1 µM, first compound 1 µM
[6] = second compound 0.1 µM, first compound 3.16 µM
[7] = second compound 0.316 µM, first compound 0.01 µM
[8] = second compound 0.316 µM, first compound 0.0316 µM
[9] = second compound 0.316 µM, first compound 0.1 µM
[10] = second compound 0.316 µM, first compound 0.316 µM
[11] = second compound 0.316 µM, first compound 1 µM
[12] = second compound 0.316 µM, first compound 3.16 µM
[13] = second compound 1 µM, first compound 0.01 µM
[14] = second compound 1 µM, first compound 0.0316 µM
[15] = second compound 1 µM, first compound 0.1 µM
[16] = second compound 1 µM, first compound 0.316 µM
[17] = second compound 1 µM, first compound 1 µM
[18] = second compound 1 µM, first compound 3.16 µM
[19] = second compound 3.16 µM, first compound 0.01 µM
[20] = second compound 3.16 µM, first compound 0.0316 µM
[21] = second compound 3.16 µM, first compound 0.1 µM
[22] = second compound 3.16 µM, first compound 0.316 µM
[23] = second compound 3.16 µM, first compound 1 µM
[24] = second compound 3.16 µM, first compound 3.16 µM
[25] = second compound 10 µM, first compound 0.01 µM
[26] = second compound 10 µM, first compound 0.0316 µM
[27] = second compound 10 µM, first compound 0.1 µM
[28] = second compound 10 µM, first compound 0.316 µM
[29] = second compound 10 µM, first compound 1 µM
[30] = second compound 10 µM, first compound 3.16 µM
[31] = second compound 0.1 µM, first compound 10 µM
[32] = second compound 0.316 µM, first compound 10 µM
[33] = second compound 1 µM, first compound 10 µM
[34] = second compound 3.16 µM, first compound 10 µM
[35] = second compound 10 µM, first compound 10 µM
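Note: spheroids exposed to agents for seven days before readout.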

Row | Compound | IC50 (second compound 0.1 µM) [nM] | IC50 (second compound 0.316 µM) [nM] | IC50 (second compound 1 µM) [nM] | IC50 (second compound 3.16 µM) [nM] | IC50 (second compound 10 µM) [nM] | viability, T/C [2] [%] | viability, T/C [3] [%] | viability, T/C [4] [%] | viability, T/C [5] [%] | viability, T/C [6] [%] | viability, T/C [8] [%] | viability, T/C [9] [%] | viability, T/C [10] [%] | viability, T/C [11] [%] | viability, T/C [14] [%] | viability, T/C [15] [%] | viability, T/C [20] [%] | viability, T/C [21] [%] | viability, T/C [26] [%] | viability, T/C [27] [%] | other results
1 | CC(=O)OC12COC1CC(O)C1(C)C(=O)C(O)C3=C(C)C(OC(=O)C(O)C(NC(=O)OC(C)(C)C)c4ccccc4)CC(O)(C(OC(=O)c4ccccc4)C21)C3(C)C (stereo not given) + C=CC(=O)N1CCN(c2nc(=O)n(-c3c(C)ccnc3C(C)C)c3nc(-c4c(O)cccc4F)c(F)cc23)C(C)C1 | < 10 | < 10 | < 10 | < 10 | < 10 | 17.1 | 19.8 | 18.1 | 21.7 | 20.2 | 17.4 | 17.4 | 20.2 | 20.4 | 19.2 | 16.4 | 21.9 | 20.9 | 24 | 29.5 | viability, T/C [1]: 19.7%; viability, T/C [7]: 18.4%; viability, T/C [12]: 18.3%; viability, T/C [13]: 16.6%; viability, T/C [16]: 19.1%; viability, T/C [17]: 20.6%; viability, T/C [18]: 20.1%; viability, T/C [19]: 16.4%; viability, T/C [22]: 19.5%; viability, T/C [23]: 23.8%; viability, T/C [24]: 19%; viability, T/C [25]: 25.9%; viability, T/C [28]: 26.2%; viability, T/C [29]: 28.8%; viability, T/C [30]: 25.5%
2 | CN(C)C/C=C/C(=O)Nc1cc2c(Nc3ccc(F)c(Cl)c3)ncnc2cc1O[C@H]1CCOC1 + C=CC(=O)N1CCN(c2nc(=O)n(-c3c(C)ccnc3C(C)C)c3nc(-c4c(O)cccc4F)c(F)cc23)C(C)C1 | < 0.316 | < 0.316 | < 0.316 | < 0.316 | < 0.316 | 15.9 | 14.3 |  |  |  | 16.7 | 16.4 |  |  | 16.5 | 15.9 | 18.9 | 17.3 | 20.7 | 19 | viability, T/C (second compound 0.1 µM, first compound 0.000316 µM): 18.1%; viability, T/C (second compound 0.1 µM, first compound 0.001 µM): 17.1%; viability, T/C (second compound 0.1 µM, first compound 0.00316 µM): 16.2%; viability, T/C [1]: 15.5%; viability, T/C (second compound 0.316 µM, first compound 0.000316 µM): 17%; viability, T/C (second compound 0.316 µM, first compound 0.001 µM): 17.6%; viability, T/C (second compound 0.316 µM, first compound 0.00316 µM): 15.6%; viability, T/C [7]: 15.3%; viability, T/C (second compound 1 µM, first compound 0.000316 µM): 20.6%; viability, T/C (second compound 1 µM, first compound 0.001 µM): 19.9%; viability, T/C (second compound 1 µM, first compound 0.00316 µM): 18.1%; viability, T/C [13]: 15.7%; viability, T/C (second compound 3.16 µM, first compound 0.000316 µM): 21.5%; viability, T/C (second compound 3.16 µM, first compound 0.001 µM): 20.9%; viability, T/C (second compound 3.16 µM, first compound 0.00316 µM): 19.4%; viability, T/C [19]: 17.9%; viability, T/C (second compound 10 µM, first compound 0.000316 µM): 26.3%; viability, T/C (second compound 10 µM, first compound 0.001 µM): 22.5%; viability, T/C (second compound 10 µM, first compound 0.00316 µM): 23.6%; viability, T/C [25]: 17.7%
3 | COC(=O)c1ccc2c(C(=Nc3ccc(N(C)C(=O)CN4CCN(C)CC4)cc3)c3ccccc3)c(O)[nH]c2c1 + C=CC(=O)N1CCN(c2nc(=O)n(-c3c(C)ccnc3C(C)C)c3nc(-c4c(O)cccc4F)c(F)cc23)C(C)C1 | < 31.6 | < 31.6 | < 31.6 | < 31.6 | < 31.6 | 24.5 | 19.7 | 16.4 | 12.7 | 10.2 | 22.8 | 20.1 | 18.5 | 12.8 | 26.3 | 21.2 | 27.1 | 25.1 | 41.2 | 30.2 | viability, T/C [31]: 7.41%; viability, T/C [12]: 8.05%; viability, T/C [32]: 6.62%; viability, T/C [16]: 16.8%; viability, T/C [17]: 14.4%; viability, T/C [18]: 7.55%; viability, T/C [33]: 5.43%; viability, T/C [22]: 20.8%; viability, T/C [23]: 17.8%; viability, T/C [24]: 6.67%; viability, T/C [34]: 8.37%; viability, T/C [28]: 31.6%; viability, T/C [29]: 29.6%; viability, T/C [30]: 4.3%; viability, T/C [35]: 0.23%
4 | O=C(c1cc(Cc2n[nH]c(=O)c3ccccc23)ccc1F)N1CCN(C(=O)C2CC2)CC1 + C=CC(=O)N1CCN(c2nc(=O)n(-c3c(C)ccnc3C(C)C)c3nc(-c4c(O)cccc4F)c(F)cc23)C(C)C1 | < 31.6 | < 31.6 | < 31.6 | < 31.6 | < 31.6 | 29.5 | 24.6 | 21.9 | 19.5 | 21.1 | 28.2 | 33.6 | 24.4 | 19.8 | 34.2 | 34.4 | 35.2 | 34.2 | 39.3 | 43.3 | viability, T/C [31]: 23.8%; viability, T/C [12]: 24.2%; viability, T/C [32]: 25.2%; viability, T/C [16]: 33.8%; viability, T/C [17]: 29.3%; viability, T/C [18]: 24.7%; viability, T/C [33]: 26.7%; viability, T/C [22]: 36%; viability, T/C [23]: 30.9%; viability, T/C [24]: 34.6%; viability, T/C [34]: 35.3%; viability, T/C [28]: 42.1%; viability, T/C [29]: 43.2%; viability, T/C [30]: 45%; viability, T/C [35]: 48.2%
